Laboratory results as given in publication PMC10934098, “Platinum(0)-η^2-1,2-(E)ditosylethene Complexes Bearing Phosphine, Isocyanide and N-Heterocyclic Carbene Ligands: Synthesis and Cytotoxicity towards Ovarian and Breast Cancer Cells” (Molecules, 2024).

Experiments:
[1] = tested on: A2780cis (cisplatin-resistant ovarian cancer cells); test: Antiproliferative activity (CellTiter-Glo cytotoxicity assay) on A2780cis; assay type: cell-based, human; conditions: 96 h of incubation, stock solutions in DMSO (cisplatin in H2O/NaCl)
Method: (§1) With the aim of exploring the potential anticancer effects of platinum(0)-η^2-1,2-(E)ditosylethene complexes, we exposed a set of three distinct human tumor cell lines (ovarian cancer A2780 and its cisplatin-resistant clone A2780cis, and triple-negative breast cancer MDA-MB-231) to the synthesized compounds and cisplatin (positive control) for a duration of 96 h.
(§2) Two types of ovarian cancer cell lines (A2780 and A2780cis), one breast cancer cell line (MDA-MB-231) and a normal cell line (MRC-5) were cultured following the supplier’s guidelines (Sigma-Aldrich, St. Louis, MO, USA) and maintained at 37 °C in a humidified atmosphere containing 5% CO2. In 96-well plates, 1∙10^3 cancer cells and 8∙10^3 MRC-5 cells were seeded and treated after 24 h with six different concentrations of Pt(0) complexes (0.001, 0.01, 0.1, 1, 10, 100 µM). Stock solutions (10 mM) of all platinum complexes were prepared using DMSO as a solvent. After 96 h of treatment, cell viability was assessed using a CellTiter-Glo assay (Promega, Madison, WI, USA) with Tecan M1000 or SynergyH1 microplate readers (Mennedorf, Switzerland). IC50 values were determined from logistical dose–response curves using GraphPad Prism 8 software. Triplicate measurements were taken to calculate averages, and standard deviations were represented by error bars.

[2] = tested on: A2780 (cisplatin-sensitive ovarian cancer cells); test: Antiproliferative activity (CellTiter-Glo cytotoxicity assay) on A2780; assay type: cell-based, human; conditions: 96 h of incubation, stock solutions in DMSO (cisplatin in H2O/NaCl)
Method: as §1, §2

[3] = tested on: MDA-MB-231 (triple-negative breast cancer cells); test: Antiproliferative activity (CellTiter-Glo cytotoxicity assay) on MDA-MB-231; assay type: cell-based, human; conditions: 96 h of incubation; MDA-MB-231 cells; stock solutions in DMSO (cisplatin in H2O/NaCl)
Method: as §1, §2

[4] = tested on: MRC-5 (normal lung fibroblasts); test: Antiproliferative activity (CellTiter-Glo cytotoxicity assay) on MRC-5 normal cells; assay type: cell-based, human; conditions: 96 h of incubation, stock solutions in DMSO (cisplatin in H2O/NaCl)
Method: as §1, §2

[5] = Solubility in DMSO and DMSO/H2O solutions; assay type: physicochemical
Source text: Therefore, these three platinum derivatives were consequently excluded from biological analyses.

Molecule | IC50 [1] [µM] | IC50 [2] [µM] | IC50 [3] [µM] | IC50 [4] [µM] | Solubility [5]
N.N.[Cl][Pt][Cl] [Cisplatin, reference compound] | 5.4 ± 0.1 | 0.19 ± 0.08 | 6.4 ± 0.5 | 2.9 ± 0.1 | –
[(CH3ImCH2Ph)2Pt(η^2-(E)-1,2-ditosylethene)] [Compound 6b] | 12.91 ± 0.06 | 1.9 ± 0.3 | 5.4 ± 0.9 | 61 ± 13 | –
[(CyIC)2Pt(η^2-(E)-1,2-ditosylethene)] [Compound 3d] | 1.4 ± 0.2 | 1.18 ± 0.09 | 1.2 ± 0.3 | – | –
[(DIC)2Pt(η^2-(E)-1,2-ditosylethene)] [Compound 3a] | – | – | – | – | low solubility
[(P(2-furyl)3)2Pt(η^2-(E)-1,2-ditosylethene)] [Compound 2c] | > 100 | 17.2 ± 0.8 | > 100 | > 100 | –
[(P(p-F-Ph)3)2Pt(η^2-(E)-1,2-ditosylethene)] [Compound 2b] | > 100 | > 100 | 36 ± 6 | > 100 | –
[(P(p-F-Ph)3)(CyIC)Pt(η^2-(E)-1,2-ditosylethene)] [Compound 4h] | > 100 | 41 ± 10 | 37 ± 13 | > 100 | –
[(P(p-F-Ph)3)(DIC)Pt(η^2-(E)-1,2-ditosylethene)] [Compound 4b] | > 100 | 85 ± 23 | 30 ± 13 | > 100 | –
[(P(p-F-Ph)3)(TIC)Pt(η^2-(E)-1,2-ditosylethene)] [Compound 4f] | > 100 | > 100 | 21 ± 2 | > 100 | –
[(P(p-F-Ph)3)(TosMIC)Pt(η^2-(E)-1,2-ditosylethene)] [Compound 4d] | > 100 | > 100 | 0.4 ± 0.1 | 14 ± 1 | –
[(PPh3)2Pt(η^2-(E)-1,2-ditosylethene)] [Compound 2a] | > 100 | 5.5 ± 0.6 | 2.6 ± 0.4 | > 100 | –
[(PPh3)(CyIC)Pt(η^2-(E)-1,2-ditosylethene)] [Compound 4g] | – | – | – | – | low solubility
[(PPh3)(DIC)Pt(η^2-(E)-1,2-ditosylethene)] [Compound 4a] | > 100 | 35 ± 3 | 1.8 ± 0.6 | 59 ± 8 | –
[(PPh3)(TIC)Pt(η^2-(E)-1,2-ditosylethene)] [Compound 4e] | – | – | – | – | low solubility
[(PPh3)(TosMIC)Pt(η^2-(E)-1,2-ditosylethene)] [Compound 4c] | > 100 | 55 ± 17 | 1 ± 0.8 | 15 ± 3 | –
[(TIC)2Pt(η^2-(E)-1,2-ditosylethene)] [Compound 3c] | 3.1 ± 0.9 | 2.6 ± 0.3 | 3.4 ± 0.4 | 3.5 ± 0.1 | –
[(TolCH2ImCH2Tol)2Pt(η^2-(E)-1,2-ditosylethene)] [Compound 6a] | 10 ± 3 | 1.6 ± 0.1 | 36 ± 11 | > 100 | –
[(TosMIC)2Pt(η^2-(E)-1,2-ditosylethene)] [Compound 3b] | 11 ± 6 | 5.4 ± 0.7 | 5.52 ± 0.03 | 22 ± 6 | –
